Experimental findings from US10227560B2, “Biomimetic support for three-dimensional cell culturing, method for manufacturing same, and use thereof” (PUSAN NATIONAL UNIVERSITY INDUSTRY-UNIVERSITY COOPERATION …, priority 2014, dated 2019) are described below.

Structures are written as SMILES. Where two headings read alike, the source gives them in different places.

Data set [1] has as its system EL4 cells. The experiment in a line: cells. The settings on record: Mus musculus.
Protocol: In the case of EL4 cells, 0.125 wt % agarose-10 wt % marine collagen-1 wt % alginate composite hydrogel support was prepared in the same manner as in Example 9, and cells were added, and the mixture liquid was added to a 1 mL syringe with 80 μL to induce the gelation at 4° C. for 5-10 minutes, and then cultured in a 48-well plate.
(§5) In order to perform a sensitivity assay for an anticancer agent, EL4 and human ovarian cancer cell A2780 were cultured in an agarose-marine collagen-alginate composite hydrogel support in a two-dimensional and three-dimensional environment and an efficacy test for an anticancer agent was performed. EL4 cells cultured in two-dimensional culture conditions and EL4 cells cultured three-dimensionally in an agarose-marine collagen-alginate composite hydrogel support were treated with 5 μM doxorubicin (5927, cell signaling) and 100 μM resveratrol and the human ovarian cancer cell A2780 was treated with paclitaxel at a concentration of 0.5 μM for 24 hours, and then with WST-1 reagent, and absorbance was measured at 450 nm by a microplate reader to calculate percent growth rate.
The test system of data set [2] is human ovarian cancer cell A2780. The experiment in a line: cells. The settings on record: for viability at 0.5 µM: A2780, 24 h.
Protocol: In the case of A2780 cells, 0.125 wt % agarose-7.5 wt % marine collagen-1 wt % alginate composite hydrogel support was prepared in the same manner as in Example 9, the cells were added to 96-well plate to induce the gelation at 4° C. for 5-10 minutes, and then cultured in the medium. In addition, the conventional two-dimensional cell culture was also performed as a control for three-dimensional cell culture.
as §5
In addition, 10 and 20 μM paclitaxel, and 30 and 50 μM curcumin were added to A2780 cells cultured in two-dimensional condition and A2780 cells cultured three-dimensionally for 7 days in agarose-marine collagen-alginate composite hydrogel supports, and the control group was treated with DMSO at the same concentration as the experimental group. The WST-1 reagent was then treated and the absorbance at 450 nm was measured by a microplate reader to calculate the percentage growth rate.
Data set [3] has as its system human ovarian cancer cell R182. Here is the method:
(§1) The cytotoxicity assay was performed by the conventional method [H. Lee et al., Regul. Pept. (2008), 147, 72-81]. The cells of Reference Example 1 were dispensed in a 96-well plate at a concentration of 1×10^4 cells/well for R182 and A2780 cells together with 0.1 mL of 10% FBS containing cell medium, and a concentration of 1×10^5 cells/well for […] the cells were cultured for 24 hours and then cultured for 12-16 hours in the absence of FBS.
(§2) The cultured cells were treated with various concentrations of calcium chloride (CaCl2, Sigma-Aldrich) at concentrations of 10, 50, 100, 200 and 300 mM and cultured for 18 to 24 hours to perform WST-1 assay (EZ-Cytox Cell Viability Assay kit, Daeillab Service, Seoul, Korea) for cell cytotoxicity assay.
(§3) WST-1 reagent of 10 μL was added to each well and incubated for 2 hours in a humidified incubator at 37° C. and 5% CO2 and the absorbance was measured at 450 nm using a microplate reader (Tecan, M, Switzerland) to calculate the percent growth rate.

Data set [4] deals with human ovarian cancer cells A2780. As for the experimental part:
as §1, §2, §3

The test system of data set [5] is mouse T cell lymphoma cells (EL4). The conditions noted are these: 18 to 24 hours. Here is the method: as §1, §2, §3
Data set [6] deals with CREC cells. The conditions noted are these: 18 to 24 hours.
Protocol: The cells of Reference Example 1 were dispensed in a 96-well plate at a concentration of 1×10^4 cells/well for R182 and A2780 cells together with 0.1 mL of 10% FBS containing cell medium, and a concentration of 1×10^5 cells/well for R182 and A2780 cells, and the cells were cultured for 24 hours and then cultured for 12-16 hours in the absence of FBS.
Data set [7] has as its system prostate cancer cell line DU-145. The experiment in a line: Anticancer drug susceptibility, WST-1 cell viability, 2D culture vs 3D culture on Fc 4%-Sc 50% fish collagen/PCL nanofiber support. The data set is classed as cell-based. The conditions noted are these: Homo sapiens, 3 μM paclitaxel, read-out: cell viability as compared with the control group. Here is the method:
(§4) First, an Fc 4%-Sc 50% fish collagen/PCL nanofiber support prepared in the same manner as in Example 1, was placed in a 96-well plate and NCI-H1703 and DU-145 cells were inoculated at a concentration of 5×10^4 cells/well. […] The results are expressed as mean±standard deviation (SD) for each analysis. Statistical analysis was performed using a two-tailed t-test and statistical significance was evaluated based on P<0.05.
On the technique in general: Tetrazolium assays rely on reduction of a dye to a coloured formazan, in cell work by metabolically active cells.

In data set [8] the test system is human non-small cell lung cancer (NCI-H1703) cells. The description is as above. The data set is classed as cell-based. The conditions noted are these: 3 μM doxorubicin, read-out: cell viability as compared with the control group. Here is the method:
as §4

[9] abbreviates: EL4, read-out: cell viability compared to the control group.
The mark [10] stands for this setting: EL4, read-out: viability as compared with the control group.

As a reminder, the viability is a per cent measure of how many cells are alive, often set against a control.

`Oc1ccc(C=Cc2cc(O)cc(O)c2)cc1` [resveratrol]: the viability at 100 µM is 93.5% in data set [1] (setting [9]) and 50.2% in data set [1] (setting [10]).
For the compound `COc1cc(/C=C/C(=O)CC(=O)/C=C/c2ccc(O)c(OC)c2)ccc1O` [curcumin], the viability at 30 µM in data set [2] (A2780, read-out: cell viability, 30 μM curcumin, second pair of values, printed again as two-dimensional environment) came to 95%; in data set [2] (A2780, read-out: cell viability, 30 μM curcumin, two-dimensional environment), 42.5%. In addition, the viability at 50 µM stood at 82.4% in data set [2] (A2780, read-out: cell viability, 50 μM curcumin, second pair of values, printed again as two-dimensional environment) and 36.7% in data set [2] (A2780, read-out: cell viability, 50 μM curcumin, two-dimensional environment).
On to `[Ca+2].[Cl-].[Cl-]` [CaCl2, calcium chloride], for which the “cytotoxic effect (WST-1, percent growth rate)” value is 34.1% in data set [3] (50 mM); 26.4% in data set [3] (100 mM); 21.1% in data set [3] (150 mM); 21.4% in data set [3] (200 mM); 24.9% in data set [3] (250 mM); 25.6% in data set [3] (300 mM). The “dose-dependent cytotoxic effect (WST-1, percent growth rate)” value in data set [4] (50 mM) turned out to be 74.9%; in data set [4] (100 mM), 65.9%; in data set [4] (150 mM) it was 41.5%; in data set [4] (200 mM), 37.9%; in data set [4] (250 mM), 39.5%; in data set [4] (300 mM), 43.7%. Also, the “dose-dependent cytotoxic effect (WST-1, percent growth rate)” value was determined as 101.3% in data set [5] (10 mM); 59.2% in data set [5] (50 mM); 25.4% in data set [5] (100 mM); 11.2% in data set [5] (200 mM); 9.7% in data set [5] (300 mM); 81.1% in data set [6] (10 mM). The “dose-dependent cytotoxic effect (WST-1, percent growth rate)” value in data set [6] (50 mM) is on record as 36.8%; in data set [6] (100 mM), 23.0%; in data set [6] (200 mM) it was 9.9%; in data set [6] (300 mM), 10.3%.
On to `CC(=O)O[C@H]1C(=O)[C@@]2(C)[C@H]([C@H](OC(=O)c3ccccc3)[C@]3(O)C[C@H](OC(=O)[C@H](O)[C@@H](NC(=O)c4ccccc4)c4ccccc4)C(C)=C1C3(C)C)[C@]1(OC(C)=O)CO[C@@H]1C[C@@H]2O` [paclitaxel], for which the viability at 3 µM in data set [7] (DU-145, 24 h, 24 hours, three-dimensional environment (Fc 4%-Sc 50% support)) is 93.5%; in data set [7] (DU-145, 24 h, 24 hours, two-dimensional environment), 50.2%; in data set [7] (DU-145, 48 h, 48 hours, three-dimensional environment (Fc 4%-Sc 50% support)), 64.2%; in data set [7] (DU-145, 48 h, 48 hours, two-dimensional environment), 14.6%. The viability at 10 µM in data set [2] (A2780, 10 μM paclitaxel, two-dimensional environment) was found to be 12.3%; in data set [2] (A2780, 168 h, 10 μM paclitaxel, three-dimensional environment (cultured 7 days in hydrogel support)), 40.2%. The viability at 20 µM in data set [2] (A2780, 20 μM paclitaxel, two-dimensional environment) was found to be 6.4%; in data set [2] (A2780, 168 h, 20 μM paclitaxel, three-dimensional environment (cultured 7 days in hydrogel support)) it was 51.4%. In addition, the viability at 0.5 µM in data set [2] (read-out: cell viability, 0.5 μM paclitaxel, 24 hours, three-dimensional environment (hydrogel support)) was 94.2%; in data set [2] (read-out: viability as compared with the control group, 0.5 μM paclitaxel, 24 hours, two-dimensional environment), 60.9%.
Turning to `COc1cccc2c1C(=O)c1c(O)c3c(c(O)c1C2=O)C[C@@](O)(C(=O)CO)C[C@@H]3O[C@H]1C[C@H](N)[C@H](O)[C@H](C)O1` [doxorubicin], the viability at 3 µM in data set [8] (NCI-H1703, 24 h, 24 hours, three-dimensional environment (Fc 4%-Sc 50% support)) is 94.5%; in data set [8] (NCI-H1703, 24 h, 24 hours, two-dimensional environment), 55.1%; in data set [8] (NCI-H1703, 48 h, 48 hours, three-dimensional environment (Fc 4%-Sc 50% support)), 95.7%; in data set [8] (NCI-H1703, 48 h, 48 hours, two-dimensional environment) it was 40.8%. For the same compound, the viability at 5 µM was 71.4% in data set [1] (setting [9]) and 58.6% in data set [1] (setting [10]).
